Reference: US20250195500A1, “INJECTABLE PREPARATION COMPRISING ISOXAZOLINE DERIVATIVE, AND PREPARATION METHOD THEREFOR” (LG CHEM, LTD., priority 2022, published 2025)
Entries after “also recorded” stand apart in the source; their conditions may differ.

Columns and labels:
caspase = assay: Caspase inhibitory activity; assay type: biochemical; conditions: form present in aqueous solution
[1] = Solubility in solvents of various compositions; assay type: physicochemical
Description: Further, it was confirmed that the compound of Formula 1 has the property of reducing the pH of a solution while being dissolved in a solvent.

[2] = Conversion from compound of Formula 2 to compound of Formula 3 according to pH of solvent; assay type: physicochemical

Q: With `CC(C)[C@@]1(C(=O)N[C@@H](CC(=O)O)C(=O)CF)CC(c2nccc3ccccc23)=NO1` [compound of Formula 2] as the compound, how does the caspase inhibitory activity (caspase) read?
A: active form

Q: What does the source list for `CC(C)[C@@]1(C(=O)NC2CC(=O)OC2(O)CF)CC(c2nccc3ccccc23)=NO1` (stereo in doubt) [compound of Formula 1, (R)—N-((2S,3S)-2-(fluoromethyl)-2-hydroxy-5-oxotetrahydrofuran-3-yl)-5-isopropyl-3-(isoquinolin-1-yl)-4,5-dihydroisoxazol-5-carboxamide]?
A: solubility in solvent ([1]; basic solvent pH 9.0 or higher, strong acidic solvent pH 1 or lower or specific solvent that can be freeze-dried): dissolves well; solubility in water ([1]; water): poorly soluble in water; also recorded: hardly soluble in water

Q: For `CC(C)[C@@]1(C(=O)N[C@H](CC(=O)O)C(=O)CF)CC(c2nccc3ccccc23)=NO1` [compound of Formula 3], which caspase inhibitory activity (caspase) is on record?
A: does not show the caspase inhibitory activity

Q: What about the “production of compound of Formula 3 from compound of Formula 2” value ([2]; acidic solvent) of the same compound?
A: hardly produced

Q: And the “production of compound of Formula 3 from compound of Formula 2” value ([2]; neutral or more basic solvent)?
A: rapidly produced
